Reference: patent US20090131503A1, “3,5 - SUBSTITUTED INDOLE COMPOUNDS HAVING NOS AND NOREPINEPHRINE REUPTAKE INHIBITORY ACTIVITY” (priority 2007, published 2009)
Entries after “also recorded” stand apart in the source; their conditions may differ. Counter-ions that a name gives are not always drawn. Like-named read-outs stand apart in the source and are kept apart here.

How the values were obtained:
human NET = biological target: T1, human NET (Homo sapiens, UniProt P23975); assay: Human norepinephrine transporter assay, [3H]nisoxetine binding to cell membrane homogenates
T1 construct: expressed in transfected cells
Protocol: Human Norepinephrine Transporter Assay
Nonspecific binding was determined in the presence of 1 μM desipramine. Following incubation, the samples were filtered rapidly under vacuum through glass fiber filters (GF/B, Packard) presoaked with 0.3% PEI, and rinsed several times with ice-cold 50 mM Tris-HCl using a 96-sample cell harvester (Unifilter, Packard). The filters were dried then counted for radioactivity in a scintillation counter (Topcount, Packard) using a scintillation cocktail (Microscint 0, Packard). The results were expressed as a percent inhibition of the control radioligand specific binding. The standard reference compound was protriptyline, which was tested in each experiment at several concentrations to obtain a competition curve from which its IC50 is calculated. Typical assay volumes were 250 μL in 96-well plate and compounds are solubilized in water.

[1] = biological target: T2, Nitric oxide synthase (endothelial, human recombinant) eNOS (Homo sapiens, UniProt P29474); assay: eNOS (human) enzyme assay, [3H]-L-arginine to L-citrulline conversion; format: biochemical
T2 construct: purchased Axxora LLC ALX-201-070

[2] = biological target: T3, Nitric oxide synthase (neuronal, human recombinant) nNOS (Homo sapiens, UniProt P29475); assay: nNOS (human) enzyme assay, [3H]-L-arginine to L-citrulline conversion; format: biochemical
T3 construct: purchased Axxora LLC ALX-201-068

[3] = test system: L5/L6 spinal nerve ligation model of neuropathic pain (Chung model); assay: Chung L5/L6 spinal nerve ligation model, tactile allodynia; format: in vivo, rat; conditions: rats, 30 mg/kg i.p., one dose
Protocol: (§1) The L5/L6 spinal nerve was surgically ligated and animals allowed to recover for a period of 7-10 days. During this period animals develop neuropathic pain. The reduction of tactile thresholds (post-SNL) was measured following the induction period for comparison with pre-surgery baseline levels (BL). Following drug administration, tactile allodynia was measured at various time points with calibrated von-Frey filaments.
(§2) (a) Chung Model of Injury-induced Neuropathic-like Pain: The experimental designs for the Chung Spinal Nerve Ligation SNL Model assay for neuropathic pain are depicted in FIGS. 1a and 1b. Nerve ligation injury was performed according to the method described by Kim and Chung (Kim and Chung, Pain 50:355-363, 1992). This technique produces signs of neuropathic dysesthesias, including tactile allodynia, thermal hyperalgesia, and guarding of the affected paw. Rats were anesthetized with halothane, and the vertebrae over the L4 to S2 region were exposed. The L5 and L6 spinal nerves were exposed, carefully isolated, and tightly ligated with 4-0 silk sutures distal to the DRG. After ensuring homeostatic stability, the wounds were sutured, and the animals allowed to recover in individual cages. Sham-operated rats were prepared in an identical fashion except that the L5/L6 spinal nerves were not ligated. […]

[4] = test system: L5/L6 spinal nerve ligation model of neuropathic pain (Chung model); assay: Chung L5/L6 spinal nerve ligation model, thermal hyperalgesia; format: in vivo, rat; conditions: rats, 30 mg/kg i.p., one dose
Protocol: as §1, with “paw withdrawal latency after an infrared thermal stimulus” for “tactile thresholds”, “thermal hyperalgesia” for “tactile allodynia”, “points.” for “points with calibrated von-Frey filaments.”
as §2

migraine [5] = conditions: migraine patients, single i.v. administration; cited from earlier work
migraine [6] = conditions: open pilot study; cited from earlier work
[7] = Table 2, compounds tested as hydrochloride salts, read-out: IC50, Human NET activity
[8] = Table 2, compounds tested as hydrochloride salts
[9] = IC50, Human NET activity, Table 2, compounds tested as hydrochloride salts

T3 sequence (P29475 whole entry): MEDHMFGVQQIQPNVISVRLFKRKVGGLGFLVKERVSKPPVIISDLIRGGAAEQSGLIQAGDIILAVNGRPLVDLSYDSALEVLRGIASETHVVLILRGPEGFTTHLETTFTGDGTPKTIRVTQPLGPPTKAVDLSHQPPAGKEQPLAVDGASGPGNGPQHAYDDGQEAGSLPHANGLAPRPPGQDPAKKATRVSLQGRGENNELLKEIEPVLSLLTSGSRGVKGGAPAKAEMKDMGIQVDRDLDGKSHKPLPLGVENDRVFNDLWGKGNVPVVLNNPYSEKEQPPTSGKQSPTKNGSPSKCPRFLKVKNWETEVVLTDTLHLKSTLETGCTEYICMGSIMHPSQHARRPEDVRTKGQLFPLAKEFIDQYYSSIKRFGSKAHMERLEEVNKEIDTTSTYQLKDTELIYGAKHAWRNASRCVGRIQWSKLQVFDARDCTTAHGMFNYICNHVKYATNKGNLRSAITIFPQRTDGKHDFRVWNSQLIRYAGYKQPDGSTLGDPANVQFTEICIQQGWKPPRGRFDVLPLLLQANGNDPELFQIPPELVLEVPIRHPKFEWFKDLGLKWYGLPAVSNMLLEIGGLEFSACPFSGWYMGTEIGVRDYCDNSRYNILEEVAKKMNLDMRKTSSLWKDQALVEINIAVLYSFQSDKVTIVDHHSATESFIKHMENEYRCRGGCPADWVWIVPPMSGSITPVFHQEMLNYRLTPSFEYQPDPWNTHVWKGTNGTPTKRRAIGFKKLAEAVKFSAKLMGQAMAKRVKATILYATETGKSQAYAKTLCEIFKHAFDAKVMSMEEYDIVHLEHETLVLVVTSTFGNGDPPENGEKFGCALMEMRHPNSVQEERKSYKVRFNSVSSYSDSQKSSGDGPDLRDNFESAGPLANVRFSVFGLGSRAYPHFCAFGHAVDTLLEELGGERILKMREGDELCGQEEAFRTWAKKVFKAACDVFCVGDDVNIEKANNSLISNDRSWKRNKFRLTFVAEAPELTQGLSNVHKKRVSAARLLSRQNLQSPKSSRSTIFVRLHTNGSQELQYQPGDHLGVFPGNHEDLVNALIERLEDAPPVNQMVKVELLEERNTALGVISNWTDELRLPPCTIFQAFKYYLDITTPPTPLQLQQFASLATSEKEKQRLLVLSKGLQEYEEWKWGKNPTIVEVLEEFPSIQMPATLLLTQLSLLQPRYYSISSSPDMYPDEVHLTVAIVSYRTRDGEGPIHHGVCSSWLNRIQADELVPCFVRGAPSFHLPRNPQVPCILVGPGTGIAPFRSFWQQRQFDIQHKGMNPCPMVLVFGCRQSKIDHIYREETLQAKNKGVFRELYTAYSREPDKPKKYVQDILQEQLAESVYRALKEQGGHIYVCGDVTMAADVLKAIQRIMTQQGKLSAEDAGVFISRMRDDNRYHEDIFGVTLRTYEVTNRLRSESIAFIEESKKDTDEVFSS
T1 sequence (P23975 whole entry): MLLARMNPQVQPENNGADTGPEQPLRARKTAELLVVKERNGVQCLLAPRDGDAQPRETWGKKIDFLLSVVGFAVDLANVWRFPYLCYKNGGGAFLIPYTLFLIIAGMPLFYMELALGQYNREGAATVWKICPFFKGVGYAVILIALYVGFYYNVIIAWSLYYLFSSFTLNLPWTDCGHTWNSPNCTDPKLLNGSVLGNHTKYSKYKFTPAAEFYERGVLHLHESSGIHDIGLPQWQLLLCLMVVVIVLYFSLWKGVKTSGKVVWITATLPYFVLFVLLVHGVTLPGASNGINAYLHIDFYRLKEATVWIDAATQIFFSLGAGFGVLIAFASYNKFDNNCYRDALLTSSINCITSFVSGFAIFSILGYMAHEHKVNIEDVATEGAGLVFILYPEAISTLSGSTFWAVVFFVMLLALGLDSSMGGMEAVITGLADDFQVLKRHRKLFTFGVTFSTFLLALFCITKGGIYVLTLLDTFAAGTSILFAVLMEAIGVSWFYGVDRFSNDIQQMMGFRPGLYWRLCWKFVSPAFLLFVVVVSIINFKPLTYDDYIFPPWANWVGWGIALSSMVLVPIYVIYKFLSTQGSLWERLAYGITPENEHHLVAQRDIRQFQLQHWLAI
T2 sequence (P29474 whole entry): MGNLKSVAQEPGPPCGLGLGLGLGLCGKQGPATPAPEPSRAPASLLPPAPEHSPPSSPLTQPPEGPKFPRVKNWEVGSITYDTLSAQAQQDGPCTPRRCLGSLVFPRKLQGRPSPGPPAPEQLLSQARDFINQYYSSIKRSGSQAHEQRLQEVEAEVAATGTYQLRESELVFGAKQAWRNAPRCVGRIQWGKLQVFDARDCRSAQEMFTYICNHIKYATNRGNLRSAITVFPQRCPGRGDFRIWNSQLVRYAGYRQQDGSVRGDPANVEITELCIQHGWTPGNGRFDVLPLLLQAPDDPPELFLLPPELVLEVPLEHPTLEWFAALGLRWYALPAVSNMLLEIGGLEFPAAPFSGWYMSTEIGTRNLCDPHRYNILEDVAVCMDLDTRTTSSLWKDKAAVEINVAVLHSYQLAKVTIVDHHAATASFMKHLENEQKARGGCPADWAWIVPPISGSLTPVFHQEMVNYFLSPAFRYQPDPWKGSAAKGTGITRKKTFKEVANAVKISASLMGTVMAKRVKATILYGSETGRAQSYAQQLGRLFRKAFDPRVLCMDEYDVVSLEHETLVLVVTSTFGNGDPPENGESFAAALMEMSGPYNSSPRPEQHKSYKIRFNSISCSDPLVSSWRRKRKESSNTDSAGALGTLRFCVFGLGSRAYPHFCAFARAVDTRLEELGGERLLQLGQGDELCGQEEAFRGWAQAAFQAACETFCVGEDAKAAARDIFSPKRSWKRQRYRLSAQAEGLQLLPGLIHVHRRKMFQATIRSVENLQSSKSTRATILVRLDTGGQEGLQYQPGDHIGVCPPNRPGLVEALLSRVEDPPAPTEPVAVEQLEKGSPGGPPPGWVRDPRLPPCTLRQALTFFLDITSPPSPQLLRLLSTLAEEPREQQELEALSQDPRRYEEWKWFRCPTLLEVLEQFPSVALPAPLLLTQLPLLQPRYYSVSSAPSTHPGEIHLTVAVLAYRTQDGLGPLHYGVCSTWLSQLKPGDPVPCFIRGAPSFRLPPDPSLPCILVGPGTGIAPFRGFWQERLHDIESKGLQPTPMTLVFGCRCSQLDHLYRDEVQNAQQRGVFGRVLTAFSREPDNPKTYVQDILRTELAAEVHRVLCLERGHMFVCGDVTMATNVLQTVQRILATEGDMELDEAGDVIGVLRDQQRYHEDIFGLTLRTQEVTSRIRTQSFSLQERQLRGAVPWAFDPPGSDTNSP

| IC50 (human NET; [7]) [nM] | Compound | IC50 [1, 8] [nM] | IC50 [2, 8] [nM] | also measured |
| --- | --- | --- | --- | --- |
| 520 | CNC1CCC(c2c[nH]c3ccc(NC(=N)c4cccs4)cc23)CC1 (mixture of isomers) [Compound 1, N-(3-(4-(methylamino)cyclohexyl)-1H-indol-5-yl)thiophene-2-carboximidamide] | – | – | – |
| 270 | CCNC1CCC(c2c[nH]c3ccc(NC(=N)c4cccs4)cc23)CC1 (mixture of isomers) [Compound 5, N-(3-(4-(ethylamino)cyclohexyl)-1H-indol-5-yl)thiophene-2-carboximidamide] | – | – | – |
| – | CCNC1CCC(c2c[nH]c3ccc(NC(=N)c4cccs4)cc23)C1 (mixture of isomers) [Compound 11, N-(3-(3-(ethylamino)cyclopentyl)-1H-indol-5-yl)thiophene-2-carboximidamide] | – | – | IC50 ([1]; Table 3): 14300 nM; IC50 ([2]; Table 3): 257 nM |
| – | CN(C)C1CC=C(c2c[nH]c3ccc(NC(=N)c4cccs4)cc23)CC1 (racemic) [(±)-2, N-(3-(4-(dimethylamino)cyclohex-1-enyl)-1H-indol-5-yl)thiophene-2-carboximidamide] | 51400 | 3000 | IC50 (human NET; [9]): 550 nM |
| 1300 | CNC1CC=C(c2c[nH]c3ccc(NC(=N)c4cccs4)cc23)CC1 (racemic) [(±)-3, N-(3-(4-(methylamino)cyclohex-1-enyl)-1H-indol-5-yl)thiophene-2-carboximidamide] | 32000 | 1730 | – |
| 280 | CCNC1CC=C(c2c[nH]c3ccc(NC(=N)c4cccs4)cc23)CC1 (racemic) [(±)-6, N-(3-(4-(ethylamino)cyclohex-1-enyl)-1H-indol-5-yl)thiophene-2-carboximidamide] | 40300 | 1420 | – |
| – | CNC1CCCC(c2c[nH]c3ccc(NC(=N)c4cccs4)cc23)C1 (racemic) [(±)-8, N-(3-(3-(methylamino)cyclohexyl)-1H-indol-5-yl)thiophene-2-carboximidamide] | – | – | IC50 ([1]; Table 3): 7760 nM; IC50 (human NET; IC50, Human NET, Table 3): 880 nM |
| – | CCNC1CCCC(c2c[nH]c3ccc(NC(=N)c4cccs4)cc23)C1 (racemic) [(±)-9, N-(3-(3-(ethylamino)cyclohexyl)-1H-indol-5-yl)thiophene-2-carboximidamide] | – | – | IC50 (human NET; IC50, Human NET, Table 3): 760 nM |
| – | CCNC1CCCC(c2c[nH]c3ccc(NC(=N)c4cccs4)cc23)C1 (racemic) [(±)-10, N-(3-(3-(ethylamino)cyclohexyl)-1H-indol-5-yl)thiophene-2-carboximidamide] | – | – | IC50 (human NET; IC50, Human NET, Table 3): 1700 nM |
| – | CNC1CCCC(c2c[nH]c3ccc(NC(=N)c4cccs4)cc23)C1 (single isomer, unassigned) [(±)-7, N-(3-(-3-(Methylamino)cyclohexyl)-1H-indol-5-yl)thiophene-2-carboximidamide] | – | – | IC50 ([1]; Table 3): 77600 nM; IC50 (human NET; IC50, Human NET, Table 3): 2500 nM |
| – | CN(C)C1CC=C(c2c[nH]c3ccc(NC(=N)c4cccs4)cc23)CC1 (single isomer, unassigned) [Compound 2a, N-(3-(4-(Dimethylamino)cyclohex-1-enyl)-1H-indol-5-yl)thiophene-2-carboximidamide] | 47100 | 865 | IC50 (human NET; [9]): 1100 nM |
| – | CN(C)C1CC=C(c2c[nH]c3ccc(NC(=N)c4cccs4)cc23)CC1 (single isomer, unassigned) [Compound 2b, N-(3-(4-(Dimethylamino)cyclohex-1-enyl)-1H-indol-5-yl)thiophene-2-carboximidamide] | 96000 | 839 | IC50 (human NET; [9]): 960 nM |
| 1100 | CNC1CC=C(c2c[nH]c3ccc(NC(=N)c4cccs4)cc23)CC1 (single isomer, unassigned) [Compound 3a, N-(3-(4-(Methylamino)cyclohex-1-enyl)-1H-indol-5-yl)thiophene-2-carboximidamide] | 53400 | 439 | – |
| 1100 | CNC1CC=C(c2c[nH]c3ccc(NC(=N)c4cccs4)cc23)CC1 (single isomer, unassigned) [Compound 3b, N-(3-(4-(Methylamino)cyclohex-1-enyl)-1H-indol-5-yl)thiophene-2-carboximidamide] | 40900 | 537 | – |
| 2800 | CCN[C@H]1CC[C@H](c2c[nH]c3ccc(NC(=N)c4cccs4)cc32)CC1 (single isomer, unassigned) [Compound 5a, trans-N-(3-(4-(Ethylamino)cyclohexyl)-1H-indol-5-yl)thiophene-2-carboximidamide] | – | – | – |
| 380 | CCN[C@H]1CC[C@@H](c2c[nH]c3ccc(NC(=N)c4cccs4)cc32)CC1 (single isomer, unassigned) [Compound 5b, cis-N-(3-(4-(Ethylamino)cyclohexyl)-1H-indol-5-yl) thiophene-2-carboximidamide] | – | – | – |
| – | CNC1CCCC(c2c[nH]c3ccc(NC(=N)c4cccs4)cc23)C1 (single isomer, unassigned) [Compound 7a, N-(3-(3-(Methylamino)cyclohexyl)-1H-indol-5-yl)thiophene-2-carboximidamide dihydrochloride [(+)-cis-enantiomer]] | – | – | reversal of tactile allodynia (antiallodynic effect) [3]: reversal of tactile hyperthesia; also recorded: pronounced antiallodynic effect; reversal of tactile allodynia (antiallodynic effect) ([3]; listed as (+)−7a): reversal of tactile allodynia; IC50 ([1]; Table 3): 49300 nM; IC50 (human NET; IC50, Human NET, Table 3): 1000 nM; reversal of thermal hyperalgesia (antihyperalgesic effect) [4]: clear antihyperalgesic effect; reversal of thermal hyperalgesia (antihyperalgesic effect) ([4]; listed as (+)−7a): reversal of thermal hyperalgesia |
| – | CNC1CCCC(c2c[nH]c3ccc(NC(=N)c4cccs4)cc23)C1 (single isomer, unassigned) [Compound 7b, N-(3-(3-(Methylamino)cyclohexyl)-1H-indol-5-yl)thiophene-2-carboximidamide dihydrochloride [(−)-cis-enantiomer]] | – | – | IC50 ([1]; Table 3): 75000 nM; IC50 (human NET; IC50, Human NET, Table 3): 5200 nM |
| 400 | CN[C@H]1CC[C@@H](c2c[nH]c3ccc(NC(=N)c4cccs4)cc32)CC1 [Compound 1a, N-(3-(4-(Methylamino)cyclohexyl)-1H-indol-5-yl)thiophene-2-carboximidamide] | – | – | – |
| 2000 | CN[C@H]1CC[C@H](c2c[nH]c3ccc(NC(=N)c4cccs4)cc32)CC1 [Compound 1b, N-(3-(4-(Methylamino)cyclohexyl)-1H-indol-5-yl)thiophene-2-carboximidamide] | – | – | – |
| – | CN(C)C1CCC(c2c[nH]c3ccc(NC(=N)c4cccs4)cc23)CC1 (stereo not drawn) [Compound 4, N-(3-(4-(dimethylamino)cyclohexyl)-1H-indol-5-yl)thiophene-2-carboximidamide] | 31800 | 3440 | IC50 (human NET; [9]): 190 nM |
| – | CNC(=N)NCCC[C@H](N)C(=O)O [L-NMMA, N^G-monomethyl-L-arginine] | – | – | response rate (migraine [5]): 67% |
| – | C/C1=C2/[N-][C@H]([C@H](CC(N)=O)[C@@]2(C)CCC(=O)NC[C@@H](C)OP(=O)([O-])O[C@H]2[C@@H](O)[C@@H](n3cnc4cc(C)c(C)cc43)O[C@@H]2CO)[C@]2(C)N=C(/C(C)=C3N=C(/C=C4N=C1[C@@H](CCC(N)=O)C\4(C)C)[C@@H](CCC(N)=O)[C@]\3(C)CC(N)=O)[C@@H](CCC(N)=O)[C@]2(C)CC(N)=O.[Co+3].[OH-] [hydroxycobalamin] | – | – | patients with a reduction in the frequency of migraine attack of 50% (migraine [6]): 53% |
